Laboratory results as given in US20080058208A1, “5,6-Cycloalkyl-7-Aminotriazolopyrimidines, their Preparation and their Use for Controlling Harmful Fungi, and Compositions Comprising these Compounds” (BASF Aktiengesellschaft, priority 2004, published 2008).

How the values were obtained:
Pythium species = assay: Activity against Pythium species in the microtiter test; type: cell-based; conditions: 125 ppm; zoospore suspension; 18° C.; absorption at 405 nm on seventh day after inoculation
Phytophthora infestans = type: cell-based; conditions: 125 ppm; sporangia suspension; 18° C.; absorption at 405 nm on seventh day after inoculation

Nc1c2c(nc3ncnn13)CCCC2 [I-2, 5,6,7,8-tetrahydro-[1,2,4]triazolo[5,1-b]quinazolin-9-ylamine]
relative growth of the pathogens, % of that of the untreated control (Pythium species): 7% | relative growth of the pathogens, % of that of the untreated control (Phytophthora infestans): 6%
